Patent US7491507B2, “Process for preparing peptides with anti-hypertensive properties” (Chr. Hansen A/S, priority 2002, dated 2009)

System: Spontaneously Hypertensive Rats (SHR)
Assay: In vivo test of anti-hypertensive properties: systolic blood pressure by plethysmography in conscious SHR after gavage
Parameters: species or system rat
Settings: gavage 2 ml of product (Enalapril 20 mg/kg in milk)
Description: Strains were streaked on MRS agar and incubated anaerobically for 48 h at 37° C. A single colony was picked, inoculated into MRS broth and grown overnight at 37° C. Stock cultures were prepared from this overnight culture and were stored at −80° C. in 20% glycerol. The strains were precultivated in milk overnight and inoculated 1% (v/v) in fresh milk for the fermentation.
The milk was fermented with the strains of single or mixed cultures for 16 hours with an inoculation level of 1% (v/v). The total product was freeze-dried. A second fermentation, with the same conditions as the first one, was centrifuged. The pellet was discarded and the whey was filtered through a […] filter and frozen. The whey was used to solubilize the freeze-dried powder to concentrate it with a factor 5 before feeding the rats.
Spontaneously Hypertensive Rats (SHR) was obtained from IFFA CREDO (a Charles River company), Lyon, France. […]
Systolic blood pressure was determined by plethysmography in conscious SHR before as well as […] after gavages, at the different times described below. […]
Systolic blood pressure of Group 1 was determined parallel to those of groups 2 and 3 and serves as control.
The day of the gavage systolic blood pressure was determined before as well as 6 and 24 hours after gavage.

In the case of `CCOC(=O)[C@H](CCc1ccccc1)N[C@@H](C)C(=O)N1CCC[C@H]1C(=O)O` [Enalapril], the “variation of systolic blood pressure” value (5 hours after administration) is reported as −30 and the “variation of systolic blood pressure” value (24 hours after administration) is reported as −17.
